Entries after “also recorded” stand apart in the source; their conditions may differ. Read-outs that look alike come from different tables or passages of the source.
Tests used:
[1] = Simulated gastrointestinal fluid solubility test (SGF, FaSSIF, FeSSIF); type: physicochemical; settings: fed state simulated intestinal fluid (FeSSIF), 37 °C, pH 4.98, fessif, thermodynamic from solid
Method: As simulated gastrointestinal fluid media (Biorelevant dissolution media) used for environment assessment in the simulated gastrointestinal tract, simulated gastric fluid (SGF), fasted state simulated intestinal fluid (FaSSIF), and fed state simulated intestinal fluid (FeSSIF) were used, and a detailed description of the test is as follows.
All vials were placed on a hot plate stirrer and maintained while stirring at 37° C. and 700 rpm. […] After mixing at 37° C. for 24 hours, 300 μL of the suspension was separated from each vial and analyzed.
The analysis sample was centrifuged at 14000 rpm for 5 minutes, and then the supernatant was diluted 10-fold with ACN:H2O (7/3, v/v) and analyzed by ultra-performance liquid chromatography (UPLC).

[2] = Solubility test of sulfate (Crystalline form III) in various solvents; type: physicochemical; settings: thermodynamic from solid
Method: First, solvent screening was performed for a study on various crystalline forms.

[3] = Physicochemical stability test of free form and 5 salts (60° C., 40° C./75% humidity, light); settings: for Final purity: HPLC
Method: In the case of a light stability test, the vial was stored in a light stability test chamber while being not closed with a lid, and exposed to a total illuminance of 1.2 million lux-hr. A vial light-shielded with aluminum foil was used as an experimental control (Dark control). For stability assessment, state assessment by visual observation, purity assessment using HPLC, and crystalline form assessment using XRPD were conducted, and results thereof are shown in Table 7. […] In FIGS. 19 to 30, “Light” represents light irradiation condition results.

[4] = Oral administration pharmacokinetic test using mice; settings: mice, oral

O=S1(=O)CCN(Cc2cc(NC3CCOCC3)c3[nH]c(-c4ccccc4)cc3c2)CC1 [Sulfate]
solubility at 24 h ([1]; FeSSIF (pH = 4.98), 37° C., after 24 hours, read-out: Solubility): 130 µg/mL
solubility at 24 h ([1]; summary Table 9, read-out: Stimulated gastrointestinal fluid solubility, FeSSIF): 130 µg/mL
solubility ([2]; aqueous with cosolvent or surfactant or cyclodextrin, Acetic acid-H2O (1:1), 25° C., read-out: Solubility): 196000 to 295000 µg/mL
solubility ([2]; aqueous with cosolvent or surfactant or cyclodextrin, Acetic acid-H2O (1:1), 50° C., read-out: Solubility): 300000 to 599000 µg/mL
solubility ([2]; aqueous with cosolvent or surfactant or cyclodextrin, Acetone-H2O (1:2), 25° C., read-out: Solubility): 9000 to 19000 µg/mL
solubility ([2]; aqueous with cosolvent or surfactant or cyclodextrin, Acetone-H2O (1:2), 50° C., read-out: Solubility): 37000 to 75000 µg/mL
solubility ([2]; aqueous with cosolvent or surfactant or cyclodextrin, MeOH/H2O = 1:1(v/v), 25° C., read-out: Solubility): 2000 to 3000 µg/mL
solubility ([2]; aqueous with cosolvent or surfactant or cyclodextrin, MeOH/H2O = 1:1(v/v), 50° C., read-out: Solubility): 9000 to 19000 µg/mL
solubility ([2]; aqueous with cosolvent or surfactant or cyclodextrin, in MeOH/H2O (1:1 (v:v)) and acetone/water (1:1 (v/v)), read-out: Solubility (good)): 5000 to 40000 µg/mL
solubility ([2]; organic solvent or mixture, 1-Butanol, 25° C., read-out: Solubility): < 2000 µg/mL
solubility ([2]; organic solvent or mixture, 1-Butanol, 50° C., read-out: Solubility): < 2000 µg/mL
solubility ([2]; organic solvent or mixture, 2-MeTHF, 25° C., read-out: Solubility): < 2000 µg/mL
solubility ([2]; organic solvent or mixture, 2-MeTHF, 50° C., read-out: Solubility): < 2000 µg/mL
solubility ([2]; organic solvent or mixture, ACN, 25° C., read-out: Solubility): < 2000 µg/mL
solubility ([2]; organic solvent or mixture, ACN, 50° C., read-out: Solubility): < 2000 µg/mL
solubility ([2]; organic solvent or mixture, Acetone, 25° C., read-out: Solubility): < 2000 µg/mL
solubility ([2]; organic solvent or mixture, Acetone, 50° C., read-out: Solubility): < 2000 µg/mL
solubility ([2]; organic solvent or mixture, CHCl3, 25° C., read-out: Solubility): < 2000 µg/mL
solubility ([2]; organic solvent or mixture, CHCl3, 50° C., read-out: Solubility): < 2000 µg/mL
solubility ([2]; organic solvent or mixture, DMF, 25° C., read-out: Solubility): 202000 to 302000 µg/mL
solubility ([2]; organic solvent or mixture, DMF, 50° C., read-out: Solubility): 304000 to 608000 µg/mL
solubility ([2]; organic solvent or mixture, DMSO, 25° C., read-out: Solubility): 158000 to 210000 µg/mL
solubility ([2]; organic solvent or mixture, DMSO, 50° C., read-out: Solubility): 301000 to 602000 µg/mL
solubility ([2]; organic solvent or mixture, EtOAc, 25° C., read-out: Solubility): < 2000 µg/mL
solubility ([2]; organic solvent or mixture, EtOAc, 50° C., read-out: Solubility): < 2000 µg/mL
solubility ([2]; organic solvent or mixture, EtOH, 25° C., read-out: Solubility): < 2000 µg/mL
solubility ([2]; organic solvent or mixture, EtOH, 50° C., read-out: Solubility): < 2000 µg/mL
solubility ([2]; organic solvent or mixture, Heptane, 25° C., read-out: Solubility): < 2000 µg/mL
solubility ([2]; organic solvent or mixture, Heptane, 50° C., read-out: Solubility): < 2000 µg/mL
solubility ([2]; organic solvent or mixture, IPA, 25° C., read-out: Solubility): < 2000 µg/mL
solubility ([2]; organic solvent or mixture, IPA, 50° C., read-out: Solubility): < 2000 µg/mL
solubility ([2]; organic solvent or mixture, MEK, 25° C., read-out: Solubility): < 2000 µg/mL
solubility ([2]; organic solvent or mixture, MEK, 50° C., read-out: Solubility): < 2000 µg/mL
solubility ([2]; organic solvent or mixture, MIBK, 25° C., read-out: Solubility): < 2000 µg/mL
solubility ([2]; organic solvent or mixture, MIBK, 50° C., read-out: Solubility): < 2000 µg/mL
solubility ([2]; organic solvent or mixture, MTBE, 25° C., read-out: Solubility): < 2000 µg/mL
solubility ([2]; organic solvent or mixture, MTBE, 50° C., read-out: Solubility): < 2000 µg/mL
solubility ([2]; organic solvent or mixture, MeOH, 25° C., read-out: Solubility): < 2000 µg/mL
solubility ([2]; organic solvent or mixture, MeOH, 50° C., read-out: Solubility): 2000 to 3000 µg/mL
solubility ([2]; organic solvent or mixture, NMP, 25° C., read-out: Solubility): 156000 to 208000 µg/mL
solubility ([2]; organic solvent or mixture, NMP, 50° C., read-out: Solubility): 202000 to 304000 µg/mL
solubility ([2]; organic solvent or mixture, THF, 25° C., read-out: Solubility): < 2000 µg/mL
solubility ([2]; organic solvent or mixture, THF, 50° C., read-out: Solubility): < 2000 µg/mL
solubility ([2]; organic solvent or mixture, Toluene, 25° C., read-out: Solubility): < 2000 µg/mL
solubility ([2]; organic solvent or mixture, Toluene, 50° C., read-out: Solubility): < 2000 µg/mL
solubility ([2]; organic solvent or mixture, iPrOAc, 25° C., read-out: Solubility): < 2000 µg/mL
solubility ([2]; organic solvent or mixture, iPrOAc, 50° C., read-out: Solubility): < 2000 µg/mL
solubility ([2]; organic solvent or mixture, in DMF, NMP, DMSO and acetic acid/water (1:1 (v:v)), read-out: Solubility (excellent)): ≥ 150000 µg/mL
solubility ([2]; organic solvent or mixture, in methanol, ethanol, isopropanol, 1-butanol, acetonitrile, acetone, MEK, MIBK, ethyl acetate, isopropyl acetate, MTBE, tetrahydrofuran, chloroform, toluene, heptane and water, read-out: Solubility (low)): ≤ 5000 µg/mL
solubility ([2]; Water, 25° C., read-out: Solubility): < 2000 µg/mL
solubility ([2]; Water, 50° C., read-out: Solubility): < 2000 µg/mL
Assay ([3]; 1.2 million lux-hr): 104.98%
Purity change ([3]; 1.2 million lux-hr): +0.14%
XRPD patterns ([3]; 1.2 million lux-hr): Pattern 2-I
Final purity ([3]; 1.2 million lux-hr): 99.87%
Appearance ([3]; 40° C./75% RH, 1 w): White powder
Assay ([3]; 40° C./75% RH, 1 w): 109.86%
Purity change ([3]; 40° C./75% RH, 1 w): −0.43%
XRPD patterns ([3]; 40° C./75% RH, 1 w): Pattern 2-I
Final purity ([3]; 40° C./75% RH, 1 w): 99.30%
Chemical stability (purity change %/1 w), 40° C./75% RH ([3]; 40° C./75% RH, 1 w, summary Table 9): −0.43%
Appearance ([3]; 60° C., 1 w): White powder
Assay ([3]; 60° C., 1 w): 110.59%
Purity change ([3]; 60° C., 1 w): +0.1%
XRPD patterns ([3]; 60° C., 1 w): Pattern 2-I
Final purity ([3]; 60° C., 1 w): 99.83%
Chemical stability (purity change %/1 w), 60° C. ([3]; 60° C., 1 w, summary Table 9): 0.1%
Sensitivity to heat, humidity and light conditions (in words) ([3]; 60° C., 40° C./75% humidity, 1.2 million lux-hr, listed as sulfate of the compound of Chemical Formula 1): sensitive under a humidity condition; also recorded: comparable results to the free form of the compound of Chemical Formula 1 under high-temperature and light stability conditions, except for a humidity condition
Assay ([3]; Dark control): 105.93%
Purity change ([3]; Dark control): +0.02%
XRPD patterns ([3]; Dark control): Pattern 2-I
Final purity ([3]; Dark control): 99.75%
Chemical stability (purity change %/1 w), Light stability ([3]; light stability, summary Table 9): 0.14%
Cmax ([4]; 10 mg/kg): 3154.8 ng/mL
t½ ([4]; 10 mg/kg): 4.0 h
AUClast ([4]; 10 mg/kg, listed as sulfate of the compound of Chemical Formula 1, 10 mg/kg): 11499.35 ng·h/mL
Pharmacokinetic test, t½ ([4]; summary Table 9): 4 h
